Assay results published in patent US20050282910A1, “Methods of application of chemical compounds having therapeutic activities in treating cancers” (priority 2003, published 2005).
Converted amounts (≈) assume the structure as drawn. Read-outs that look alike come from different tables or passages of the source. One block for each compound: values may come before it.

Columns and labels:
MRP1 = biological target: T1, MRP1 (Homo sapiens, UniProt P33527); test: Daunorubicin accumulation in HL60/adr cells (MRP1-mediated drug efflux), flow cytometry; format: cell-based; settings: 2 μg/ml daunorubicin; 60 minutes; FIG. 7
T1 construct: human cancer cell line HL60/adr, an MDR cell line characterized by MRP1 overexpression; endogenous in cells; host or cells: HL60/adr (human MDR cancer cell line)
Text: MRP1 functions as a drug pump that unilaterally pumps the anticancer agents out of MDR cancer cells. Inhibition of MRP1 results in an increase of intracellular drug concentration within cancer cells.

HL60/adr = test: Reversal of MRP1-mediated drug resistance, MTT cytotoxicity of anticancer agents; format: cell-based, human; settings: for IC50: Homo sapiens, HL60/ADR, 72 h
Description: Assays were carried out in triplicate against MDR cancer cell HL60/adr. MTT assays as described previously (X.

[1] = system: human leukemia MDR cell line K562/adr; test: Reversal of P-glycoprotein-mediated drug resistance by Schisandrin A, Schisandrol A, Schisantherin A, MTT cytotoxicity of anticancer agents; format: cell-based; settings: for IC50: Homo sapiens, K562/Adr, 72 h
Description: Assays were carried out in triplicate against human leukemia MDR cell line K562/adr, human breast cancer MDR cell line MCF7/adr, and human epidermoid carcinoma MDR cell line KBv200.

P-glycoprotein = P-glycoprotein (Homo sapiens, UniProt P08183); test: Daunorubicin accumulation in MCF7/adr cells (P-glycoprotein-mediated drug efflux), flow cytometry; format: cell-based; settings: 2 μg/ml daunorubicin; 0, 1, 10, 20, 40, and 80 μg/ml compound; 60 minutes; FIG. 5
Description: P-glycoprotein functions as a drug pump that unilaterally pumps the anticancer agents out of MDR cancer cells. Inhibition of P-glycoprotein results in an increase of the intracellular drug concentration within cancer cells. […] Cells were collected at 60 minutes after incubation.

[2] = system: human breast cancer MDR cell line MCF7/adr; test: cells; settings: NCI/ADR-RES, 72 h
[3] = system: human epidermoid carcinoma MDR cell line KBv200; test: cells; settings: KBv200, 72 h
[4] = system: human epidermoid carcinoma MDR cell line KBv200
MCF7/adr = test: Reversal of drug resistance by ethanol extracts of Schisandra chinensis fruit, MTT cytotoxicity of anticancer agents
KBv200 = test: as above
SMMC7721 = test: Enhancement of anticancer agent-induced apoptosis and necrosis, Anexin V-FITC/PI; format: cell-based, human; settings: SMMC7721; vincristine 0.5 μg/ml, Schisandrin B 20 μg/ml; 48 hours
Description: To illustrate the activities of Schisandrin B or its analogs enhancing the apoptosis of cancer cells induced by an anticancer agent according to the present disclosure, human cancer cell line SMMC7721, a non-drug-resistant hepatic cancer cell line, and MCF7, a non-drug-resistant breast cancer cell line, were selected for use. Assays were carried out in triplicates against SMMC7721 or MCF7. […] Cells were collected and the apoptotic cells and necrotic cell percentages were determined using Anexin V-FITC/PI kit (Sigma, St. Louis, Mo., USA) according to manufacturer's instructions. Alternatively, the apoptotic and necrotic cell percentages were measured using DNA Plus kit (Becton-Dickinson, USA) according to the manufacturer's instructions.

K562/adr = test: Reversal of drug resistance by ethanol extracts of Schisandra chinensis fruit, MTT cytotoxicity of anticancer agents; format: cell-based, human
Description: Assays were carried out in triplicate against human MDR cancer cell lines K562/adr, KBv200, and MCF7/adr. […] Alternatively, flow cytometry assays using FACS Calibur equipped with software Cellquest 3.1f (Becton-Dickinson, Holbrook, N.J.) were applied to count the cell numbers in each sample.

[5] = system: human breast cancer MDR cell line MCF7/adr
[6] = read-out: IC50 (ng/ml) −Schisandrin A
[7] = read-out: IC50 (ng/ml) −Schisantherin A
[8] = anticancer agent in the presence of Schisandrin A (10 μg/ml), 72 hours
[9] = anticancer agent in the presence of Schisantherin A (10 μg/ml), 72 hours

T1 sequence (P33527 whole entry): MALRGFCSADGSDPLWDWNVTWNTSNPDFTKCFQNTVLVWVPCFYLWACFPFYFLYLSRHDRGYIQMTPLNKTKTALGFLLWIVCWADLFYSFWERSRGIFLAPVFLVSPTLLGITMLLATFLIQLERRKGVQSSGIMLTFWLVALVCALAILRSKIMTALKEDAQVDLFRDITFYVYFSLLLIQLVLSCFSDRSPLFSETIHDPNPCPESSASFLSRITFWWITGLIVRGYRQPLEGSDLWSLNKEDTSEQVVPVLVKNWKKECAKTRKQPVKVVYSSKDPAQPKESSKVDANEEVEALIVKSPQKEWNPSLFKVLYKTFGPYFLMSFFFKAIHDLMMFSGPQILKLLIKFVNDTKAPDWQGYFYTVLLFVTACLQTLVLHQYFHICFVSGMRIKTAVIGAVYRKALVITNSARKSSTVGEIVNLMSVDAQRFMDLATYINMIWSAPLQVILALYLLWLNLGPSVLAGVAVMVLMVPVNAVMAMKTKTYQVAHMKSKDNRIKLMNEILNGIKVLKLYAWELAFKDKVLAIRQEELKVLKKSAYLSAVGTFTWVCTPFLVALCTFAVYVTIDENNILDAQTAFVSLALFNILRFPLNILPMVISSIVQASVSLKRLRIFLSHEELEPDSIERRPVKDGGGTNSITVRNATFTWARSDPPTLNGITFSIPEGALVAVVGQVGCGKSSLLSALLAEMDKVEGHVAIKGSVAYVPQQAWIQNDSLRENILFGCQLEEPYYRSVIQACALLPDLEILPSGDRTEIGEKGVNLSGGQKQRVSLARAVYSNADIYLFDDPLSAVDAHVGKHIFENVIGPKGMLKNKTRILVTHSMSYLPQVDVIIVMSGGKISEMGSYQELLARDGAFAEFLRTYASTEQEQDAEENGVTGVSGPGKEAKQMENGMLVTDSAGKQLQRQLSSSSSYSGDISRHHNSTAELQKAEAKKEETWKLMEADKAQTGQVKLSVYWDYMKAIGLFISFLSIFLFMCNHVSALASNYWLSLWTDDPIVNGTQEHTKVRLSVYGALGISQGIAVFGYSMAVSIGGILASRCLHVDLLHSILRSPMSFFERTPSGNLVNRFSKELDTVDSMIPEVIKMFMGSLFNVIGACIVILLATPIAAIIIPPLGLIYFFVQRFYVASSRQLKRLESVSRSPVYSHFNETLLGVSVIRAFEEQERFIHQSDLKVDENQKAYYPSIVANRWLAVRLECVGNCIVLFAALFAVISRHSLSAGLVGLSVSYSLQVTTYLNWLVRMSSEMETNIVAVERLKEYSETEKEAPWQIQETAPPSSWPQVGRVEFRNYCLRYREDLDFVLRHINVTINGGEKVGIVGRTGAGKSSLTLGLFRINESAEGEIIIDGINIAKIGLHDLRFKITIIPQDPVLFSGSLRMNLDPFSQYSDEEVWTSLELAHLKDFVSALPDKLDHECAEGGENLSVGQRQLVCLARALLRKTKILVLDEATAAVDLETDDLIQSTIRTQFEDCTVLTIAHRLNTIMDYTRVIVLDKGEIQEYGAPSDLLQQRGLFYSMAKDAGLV
Sequence of P-glycoprotein (P08183 whole entry): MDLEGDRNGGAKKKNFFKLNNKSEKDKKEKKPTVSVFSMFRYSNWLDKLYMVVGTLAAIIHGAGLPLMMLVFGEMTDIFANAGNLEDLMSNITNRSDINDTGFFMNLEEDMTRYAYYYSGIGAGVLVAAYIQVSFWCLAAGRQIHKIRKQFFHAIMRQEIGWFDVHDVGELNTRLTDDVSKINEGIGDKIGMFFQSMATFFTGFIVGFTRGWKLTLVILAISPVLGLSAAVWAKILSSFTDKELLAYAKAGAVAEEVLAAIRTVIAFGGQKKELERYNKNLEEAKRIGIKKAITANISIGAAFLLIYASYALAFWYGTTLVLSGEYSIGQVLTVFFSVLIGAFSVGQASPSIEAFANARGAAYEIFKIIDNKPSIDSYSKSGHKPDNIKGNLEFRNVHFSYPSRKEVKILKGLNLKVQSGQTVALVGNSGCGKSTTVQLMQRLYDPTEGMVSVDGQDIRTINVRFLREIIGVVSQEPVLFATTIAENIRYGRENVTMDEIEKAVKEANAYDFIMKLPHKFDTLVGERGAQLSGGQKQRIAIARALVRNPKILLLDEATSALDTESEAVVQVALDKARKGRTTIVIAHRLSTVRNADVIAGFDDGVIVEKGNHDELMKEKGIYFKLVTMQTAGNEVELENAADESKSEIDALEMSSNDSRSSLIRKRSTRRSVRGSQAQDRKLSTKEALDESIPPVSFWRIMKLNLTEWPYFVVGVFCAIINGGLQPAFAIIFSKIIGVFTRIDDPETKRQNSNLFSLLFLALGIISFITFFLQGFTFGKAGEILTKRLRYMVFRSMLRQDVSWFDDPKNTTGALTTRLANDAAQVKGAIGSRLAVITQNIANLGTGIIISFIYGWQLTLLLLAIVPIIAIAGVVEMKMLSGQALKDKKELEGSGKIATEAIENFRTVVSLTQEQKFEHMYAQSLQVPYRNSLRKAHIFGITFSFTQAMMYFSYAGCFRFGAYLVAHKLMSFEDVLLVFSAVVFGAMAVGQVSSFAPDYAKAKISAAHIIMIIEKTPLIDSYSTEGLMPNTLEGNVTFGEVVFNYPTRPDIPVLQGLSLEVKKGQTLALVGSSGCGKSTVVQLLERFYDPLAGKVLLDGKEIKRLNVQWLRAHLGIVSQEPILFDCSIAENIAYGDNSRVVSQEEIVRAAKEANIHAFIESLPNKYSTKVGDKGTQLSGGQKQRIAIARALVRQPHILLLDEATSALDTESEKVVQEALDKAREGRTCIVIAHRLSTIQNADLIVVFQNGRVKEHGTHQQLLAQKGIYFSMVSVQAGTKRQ

SMILES: COc1cc2c(c(OC)c1OC)-c1c(cc3c(c1OC)OCO3)C[C@H](C)[C@](C)(O)[C@H]2OC(=O)c1ccccc1 [Schisantherin A]
daunorubicin accumulation within HL60/adr cells (in words) (MRP1): increased with the increasing concentration
drug sensitivity of HL60/adr toward the anticancer agents (in words) (HL60/adr; compound 10 μg/ml): enhanced
sensitivity of MDR cancer cell K562/adr to daunorubicin (in words) ([1]; FIG. 3): increase the sensitivity
accumulation of daunorubicin within MCF7/adr cells (in words) (P-glycoprotein): proportionately correlated with the increment of the concentration

IC50 [2, 6]: 501 ± 129 ng/mL (≈ 0.607 µM)
IC50 [2, 7]: 501 ± 109 ng/mL (≈ 0.607 µM)
IC50 [3, 6]: 22.5 ± 3.2 ng/mL (≈ 0.0273 µM)
IC50 [3, 7]: 22.5 ± 5.6 ng/mL (≈ 0.0273 µM)
IC50 (ng/ml) +Schisandrin A [4, 8]: 2.95 ± 0.7 ng/mL
IC50 (ng/ml) +Schisantherin A [4, 9]: 3.7 ± 0.9 ng/mL
IC50 (ng/ml) +Schisandrin A [5, 8]: 8.4 ± 2.3 ng/mL
IC50 (ng/ml) +Schisantherin A [5, 9]: 24.1 ± 9.2 ng/mL
SMILES: CC[C@]1(O)C[C@H]2CN(CCc3c([nH]c4ccccc34)[C@@](C(=O)OC)(c3cc4c(cc3OC)N(C=O)[C@H]3[C@@](O)(C(=O)OC)[C@H](OC(C)=O)[C@]5(CC)C=CCN6CC[C@]43[C@@H]65)C2)C1 [Vincristine]
RF (reversal folds of drug resistance) ([4]; by Schisandrin A (10 μg/ml)): 7.6
RF (reversal folds of drug resistance) ([4]; by Schisantherin A (10 μg/ml)): 6.1
IC50 (MCF7/adr; Homo sapiens, NCI/ADR-RES, 72 h, read-out: IC50 (ng/ml) −ethanol extract): 490 ± 112 ng/mL
IC50 (ng/ml) +ethanol extract (MCF7/adr; MCF7/adr, anticancer agent in the presence of ethanol extracts (50 μg/ml), 72 hours): 210 ± 32 ng/mL
RF (reversal folds of drug resistance) (MCF7/adr; MCF7/adr, by ethanol extracts (50 μg/ml)): 2.3
IC50 (KBv200; Homo sapiens, KBv200, 72 h, read-out: IC50 (ng/ml) −ethanol extract): 42 ± 14 ng/mL
RF (reversal folds of drug resistance) (KBv200; KBv200, by ethanol extracts (50 μg/ml)): 13.5
IC50 (ng/ml) +Schisandrin A (HL60/adr; HL60/adr, anticancer agent in the presence of Schisandrin A (10 μg/ml), 72 hours): 3.3 ± 0.9 ng/mL
IC50 (ng/ml) +Schisandrin B (HL60/adr; HL60/adr, anticancer agent in the presence of Schisandrin B (10 μg/ml), 72 hours): <1 ng/mL
IC50 (ng/ml) +Schisantherin A (HL60/adr; HL60/adr, anticancer agent in the presence of Schisantherin A (10 μg/ml), 72 hours): 3.9 ± 0.9 ng/mL
RF (reversal folds of drug resistance) (HL60/adr; HL60/adr, by Schisandrin A (10 μg/ml)): 27.0
RF (reversal folds of drug resistance) (HL60/adr; HL60/adr, by Schisandrin B (10 μg/ml)): >48
RF (reversal folds of drug resistance) (HL60/adr; HL60/adr, by Schisantherin A (10 μg/ml)): 22.8
IC50 (ng/ml) +Schisandrin B (HL60/adr; HL60/adr, vincristine in the presence of Schisandrin B 5 μg/ml, 72 hours): 5 ± 1 ng/mL
IC50 (ng/ml) +Schisandrin B (HL60/adr; HL60/adr, vincristine in the presence of Schisandrin B 10 μg/ml, 72 hours): 4 ± 2 ng/mL
IC50 (ng/ml) +Schisandrin B (HL60/adr; HL60/adr, vincristine in the presence of Schisandrin B 20 μg/ml, 72 hours): <1 ng/mL
IC50 (HL60/adr; HL60/adr, anticancer agent in the absence of Schisandrin A, 72 hours, read-out: IC50 (ng/ml) −Schisandrin A): 89 ± 21 ng/mL
IC50 (HL60/adr; HL60/adr, anticancer agent in the absence of Schisandrin B, 72 hours, read-out: IC50 (ng/ml) −Schisandrin B): 48 ± 12 ng/mL
IC50 (HL60/adr; HL60/adr, anticancer agent in the absence of Schisantherin A, 72 hours, read-out: IC50 (ng/ml) −Schisantherin A): 89.1 ± 21 ng/mL
IC50 (HL60/adr; HL60/adr, vincristine in the absence of Schisandrin B, 72 hours, read-out: IC50 (ng/ml) −Schisandrin B): 42 ± 1 ng/mL
Apoptotic + necrotic (%) (SMMC7721): 6.1 ± 0.4%
IC50 ([1]; K562/adr, anticancer agent in the absence of Schisandrin A, 72 hours, read-out: IC50 (ng/ml) −Schisandrin A): 612 ± 176 ng/mL
IC50 ([1]; K562/adr, anticancer agent in the absence of Schisantherin A, 72 hours, read-out: IC50 (ng/ml) −Schisantherin A): 612 ± 158 ng/mL
IC50 (ng/ml) +Schisandrin A ([1]; K562/adr, anticancer agent in the presence of Schisandrin A (10 μg/ml), 72 hours): 7.3 ± 2.1 ng/mL
IC50 (ng/ml) +Schisantherin A ([1]; K562/adr, anticancer agent in the presence of Schisantherin A (10 μg/ml), 72 hours): 7.7 ± 2.1 ng/mL
RF (reversal folds of drug resistance) ([1]; K562/adr, by Schisandrin A (10 μg/ml)): 83.8
RF (reversal folds of drug resistance) ([1]; K562/adr, by Schisantherin A (10 μg/ml)): 79.5
IC50 (K562/adr; Homo sapiens, anticancer agent in the absence of ethanol extracts, 72 hours, read-out: IC50 (ng/ml) −ethanol extract): 870 ± 230 ng/mL
IC50 (ng/ml) +ethanol extract (K562/adr; anticancer agent in the presence of ethanol extracts (50 μg/ml), 72 hours): 110 ± 42 ng/mL
RF (reversal folds of drug resistance) (K562/adr; by ethanol extracts (50 μg/ml)): 7.9
RF (reversal folds of drug resistance) ([5]; by Schisandrin A (10 μg/ml)): 59.6
RF (reversal folds of drug resistance) ([5]; by Schisantherin A (10 μg/ml)): 20.9
